Values of other authors in patent US4081530A, “Extended chain derivatives of somatostatin” (Ayerst, McKenna & Harrison Limited, priority 1975, dated 1978).

Conditions: somatostatin-like activity

Substance: [Ala^3,14 ]-somatostatin (AGAKNFFWKTFTSA; Somatostatin-14; UniProt P61278 103-116, looked up, variant C3A C14A) [somatostatin analog synthesised by solid phase methods (Sarantakis et al.)]
- activity as share of somatostatin's potency: about 0.01%
